From US7935726B1, “Tricyclic pyrones” (Kansas State University Research Foundation, priority 1999, dated 2011)

Columns and labels:
ACAT = experiment: inhibition of ACAT; format: biochemical
CETP = target: T1, CETP (Homo sapiens, UniProt P11597); experiment: inhibition of CETP; format: biochemical
T1 sequence (P11597 18-493): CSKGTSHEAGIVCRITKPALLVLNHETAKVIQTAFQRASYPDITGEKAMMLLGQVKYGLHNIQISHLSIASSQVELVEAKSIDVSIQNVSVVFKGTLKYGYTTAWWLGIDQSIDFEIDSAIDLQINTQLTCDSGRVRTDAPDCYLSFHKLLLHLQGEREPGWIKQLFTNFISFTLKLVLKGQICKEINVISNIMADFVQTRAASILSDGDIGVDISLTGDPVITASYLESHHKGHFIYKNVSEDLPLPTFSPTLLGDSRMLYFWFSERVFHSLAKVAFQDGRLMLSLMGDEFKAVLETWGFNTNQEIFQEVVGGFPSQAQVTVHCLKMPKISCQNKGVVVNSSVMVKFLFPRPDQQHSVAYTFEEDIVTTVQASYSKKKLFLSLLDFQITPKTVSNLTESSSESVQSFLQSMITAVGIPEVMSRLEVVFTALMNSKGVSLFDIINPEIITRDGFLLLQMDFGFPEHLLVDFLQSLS
From the text: (§1) The reported procedures for the inhibitory activities of ACAT (Tomoda, H.; Nishida, H.; Masuma, R.; Cao, J.; Okuda, S.; Omura, S. J. Antibiot. 1991, 44, 136-143), CETP (Tomoda, H.; Tabata, N.; Masuma, R.; Si, S.-Y.; Omura, S. J. Antibiot. 1998, 51, 618-623; D. H. Hua et al. Tetrahedron 2003, 59, 4795-4803), L1210 tumor cells (Perchellet, E. M.; Ladesich, J. B.; Magill, M. J.; Chen, Y.; Hua, D. H.; Perchellet, J. P. Anti-Cancer Drugs 1999, 10, 489-504), and APP C99-induced cell death (Jin, L.-W.; Hua, D. H.; Shie, F.-S.; Maezawa, I.; Sopher, B.; Martin, G. M. J. Mol. Neurosci. 2002, 19, 57-61) were followed.
ACAT mediates the esterification of intracellular cholesterol and is believed to play a key role in lipoprotein metabolism and atherogenesis (for a review: Suckling, K. E.; Stange, E. F. J. Lipid Res. 1985, 26, 647-671). […] The inhibition of CETP with these three compounds was then studied. CETP, a hydrophobic neutral glycoprotein, mediates the transfer of cholesteryl ester from high-density lipoprotein to low-density lipoprotein (For a review: Tall, A. R. J. Lipid Res. 1993, 34, 1255-1274). […] The N-(p-nitrophenyl)aspartamide portion of 104 was attached in order to study whether 104 was a substrate of […] (For a review: VIIIa, P.; Kaufmann, S. H.; Earnshaw, W. C. Trends Biochem. Sci. 1997, 22, 388-393). […] Compound 105 is cytotoxic to L1210 tumor cells, with IC50=30 μM. Aggarwal et al., J. Chem. Soc., Perkin Trans I (1999) 3315-3321 is incorporated by reference to the extent not inconsistent with the disclosure herewith.

MC65 cells = experiment: protection from APP C99-induced cell death in MC65 cells; format: cell-based; conditions: for protection of MC65 cells from death (in words): MC65 cells conditionally expressing partial APP fusion protein, absence of tetracycline; for EC50: MC65 cells in the absence of tetracycline
From the text: as §1, with “followed. […]” for “followed.”

[1] = target: T2, Human aldose reductase (AR) (Homo sapiens, UniProt P15121); experiment: human AR inhibition assay (enzyme assay, NADPH absorption at 340 nm); format: biochemical; conditions: Table 4
T2 construct: made in house; host or cells: E. coli
Method: Human aldose reductase (AR) was obtained from overexpression of the human AR gene in an E coli system and was purified by column chromatography using a talon metal affinity column and eluted with a gradient mixture of Tris, NaCl buffer and imidazole solution. The human AR inhibition assay was conducted as follows. In a sample cuvette, 25 mM of D-xylose (75 mg/mL) and 0.15 mM of reduced nicotinamide adenine dinucleotide phosphate (NADPH) (4 mg/mL), and various amount of the inhibitor [in PBS (phosphate buffer saline) solution; the concentration of the inhibitor was determined using UV spectroscopy based on εmax at λmax of the drug] in 700 uL of PBS (a solution made of 1.44 g of Na2HPO4, 0.24 g KH2PO4, 0.2 g KCl, and 8 g NaCl in 1 L of distilled water) buffer (pH=6.1) solution and 200 uL of the AR enzyme (a final volume of 1 mL was obtained). The intensity of absorption of NADPH (λmax=340 nm) was measured. When xylose is reduced to xylitol, NADPH is converted into NADP and the absorption at 340 nm decreases. When AR is inhibited by the drug, the absorption at 340 nm of NADPH remains unchanged. Each assay was repeated three times and an average IC50 value was obtained.

[2] = system: N/N 1003 lens epithelial cells; experiment: tissue culture assay: galactitol formation from galactose in lens epithelial cells (GC/MS); format: cell-based; conditions: for inhibition at 10 µM: 10 uM inhibitor, 40 mM galactose media, lens epithelial cells, number of trials in parenthesis; for inhibition at 10 µM / % galactitol: 48 hours; for % galactitol: 40 mM galactose
Method: The activity of the drugs is tested in various ways, including tissue culture assays and assays testing aldose reductase inhibition. For the tissue culture assay, a lens epithelial cell line is grown in galactose with or without the drug. Cells are tested for polyol accumulation by GC/mass spectrometry. Levels of PKC are tested in homogenized cell pellets or in samples of lens, retina or sciatic nerves from treated patients. Tissue is homogenized and tested for PKCγ levels using Western blots. These procedures are described in more detail below.
The ability of the drugs to inhibit galactitol formation from galactose was also studied in N/N 1003 lens epithelial cells. Two sets of lens cells were grown in media with […] 40 mM galactose. Various concentrations of inhibitors were added initially and the cells were grown for 48 hours. The cells were lysed and galactose and galactitol were extracted out and the concentrations were determined using gas chromatography and mass spectrometry by silylating the crude extract with excess of trimethylsilyl chloride, trimethylsilyl imidazole and pyridine at 70° C. for 1 h.
40 mM galactose media was supplemented with 10 uM inhibitor and fed to lens epithelial cells for 48 hours.

PKC-γ = experiment: galactose-fed rats: PKC-γ levels in lens and sciatic nerve (Western blot); format: in vivo, Sprague Dawley Rats; conditions: 100 mg/Kg body weight per day
Method: In order to test for in vivo effects of ARI's, rats were fed a 40% galactose diet for 9 days and the accumulation of galactitol was measured in lens tissue. This tissue has high aldose reductase activity and the eye has a separate vasculature. Thus, if the ARI works in the lens this is a good indication that the drug works and can penetrate to most tissues.
The specific experimental details follow. […] The rats were given food supplemented with inhibitor in the morning and then given food and water ad libitum the rest of the day. They were kept on a 12-hour on and 12-hour off light cycle. After 9 days, the rats were sacrificed with an overdose of CO2 and then eyes were taken and immediately frozen on dry ice for later polyol and PKC analyses. Experiments on all rats conformed to the ARVO resolution on the Use of Animals in Research.
The lenses were removed from the enucleated eyes and weighed. They were put in 200 μL lysis buffer (50 mM Tris, 100 mM NaCl, M-Per Pierre Zwitterionic detergent, 5 mM NaF, 1 mM Na3VO4, 40 mM β-glycerophosphate, 6 μg/mL chymotrypsin, 10 μM3,4-dichlorocoumarin, 10 μM E-64, 1 μg/mL leupeptin, 1 μg/mL pepstatin A, 1 μg/mL aprotinin, 1 mM PMSF, and 5 mM EDTA (Sigma). The lenses were then ground using a tissue grinder until they were a uniformly white solution. They were then sonicated to make certain all the cells were disrupted. The mixture was then centrifuged for 20 minutes at 0° C. at […]. The supernatant was then analyzed for protein content using […] (Pierce). Equal amounts of protein were loaded and separated on a 10% SDS polyacrylamide gel. The proteins were transferred to nitrocellulose (Midwest Scientific; pore size 0.45 μm). The western was blocked with a 3% milk solution, and then mouse anti-PKC γ (1:5000) or PKC α (1:1000) antisera (Transgenic Laboratories) were applied in a 3% milk solution overnight. […]
The effects of streptozotocin induced diabetes on PKC-γ levels in rat lens have been measured. […]

For `CC(CO)[C@H]1CCC2=Cc3c(cc(CC(=O)OCc4ccccc4)oc3=O)O[C@H]2C1` (mixture of isomers) [Compound 102, Benzyl (5aS,7S)-{7-[(1R)- and (1S)-2-hydroxy-1-methylethyl]-1H,7H-5a,6,8,9-tetrahydro-1-oxopyrano[4,3-b][1]benzopyran-3-yl}acetate], the IC50 (ACAT) was 310 µM and the IC50 (CETP) was > 100 µM.
With `CC(CO)[C@H]1CC[C@@H]2[C@H](C1)Oc1cc(CC(=O)OCc3ccccc3)oc(=O)c1[C@H]2O` (mixture of isomers) [Compound 103, Benzyl (5aS,7S,9aS,10S)-{10-hydroxy-7-[(1R) and (1S)-2-hydroxy-1-methylethyl]-1H,7H-5a,6,8,9-tetrahydro-1-oxopyrano[4,3-b][1]benzopyran-3-yl}acetate] the IC50 (ACAT) was 150 µM and the IC50 (CETP) was 75 µM.
For `Cc1cc2c(c(=O)o1)C=C1CC[C@H](C(C)Cn3cnc(N)c4ncnc3-4)C[C@@H]1O2` (mixture of isomers) [Compound 106, (5aS,7S)-7-[(1R) and (1S)-2-(N-3-adenyl)-1-methylethyl]-3-methyl-1H,7H-5a,6,8,9-tetrahydro-1-oxopyrano[4,3-b][1]benzopyran], the IC50 (ACAT) was > 500 µM, the IC50 (CETP) was > 250 µM and the “protection of MC65 cells from death (in words)” value (from here on “protection of MC65 cells”) (MC65 cells) was “protected from death”. It also gave an EC50 (MC65 cells) of 0.15 µM.
With `Cc1cc2c(c(=O)o1)C=C1CC[C@H](C(C)CNc3ncnc4[nH]cnc34)C[C@@H]1O2` (mixture of isomers) [Compound 107, (5aS,7S)-7-[(1R) and (1S)-2-(N10-Adenyl)-1-methylethyl]-3-methyl-1H,7H-5a,6,8,9-tetrahydro-1-oxopyrano[4,3-b][1]benzopyran] the “protection of MC65 cells” value (MC65 cells) was “inactive” and the EC50 (MC65 cells) was > 3 µM.
In the case of `Nc1ncnc2nc[nH]c12` [Adenine, reference compound], the “protection of MC65 cells” value (MC65 cells) is reported as “no activity” and the EC50 (MC65 cells) is reported as > 10 µM.
In the case of `O=C(O)C(O)Cc1cc2c(c(=O)o1)C=C1CCCCC1O2` (centres unmarked) [Compound 3, 2-Hydroxy-3-{1H,7H-5a,6,8,9-tetrahydro-1-oxopyrano[4,3-b][1]benzopyran-3-yl}-propanoic acid], the IC50 ([1]; read-out: IC50 values obtained from the enzyme assay (aldose reductase)) is reported as > 500 µM and the inhibition at 10 µM ([2]; Epithelial cell) is reported as < 10%.
In the case of `O=C(O)CCc1cc2c(c(=O)o1)C=C1CCCCC1O2` (centres unmarked) [Compound 5a], the water solubility (water solubility) is reported as “water soluble”.
With `C=C(C)[C@H]1CCC2=Cc3c(cc(CC(=O)O)oc3=O)O[C@H]2C1` [Compound 6, {(5aS,7S)-7-Isopropenyl-1H,7H-5a,6,8,9-tetrahydro-1-oxopyrano[4,3-b][1]-benzopyran-3-yl}acetic acid] the “IC50 values obtained from the enzyme assay (aldose reductase)” value [1] was “No significant inhibition detected”.
For `CC(CO)[C@H]1CCC2=Cc3c(cc(CC(=O)O)oc3=O)O[C@H]2C1` (some centres unmarked) [Compound 7], the “IC50 values obtained from the enzyme assay (aldose reductase)” value [1] was “No significant inhibition detected”.
With `C=C(C)[C@H]1CCC2=Cc3c(cc(CC(=O)OCc4ccccc4)oc3=O)O[C@H]2C1` [Compound 101, Benzyl (5aS,7S)-{7-isopropenyl-1H,7H-5a,6,8,9-tetrahydro-1-oxopyrano[4,3-b][1]benzopyran-3-yl}acetate] the IC50 (ACAT) was 157 µM and the IC50 (CETP) was > 100 µM.
With `C=C(C)[C@H]1CCC2=Cc3c(cc(C)oc3=O)O[C@H]2C1` [Compound 108] the IC50 (ACAT) was 167 µM and the EC50 (MC65 cells) was > 10 µM.
In the case of `COc1ccc2c(C(=S)N(C)CC(=O)O)cccc2c1C(F)(F)F` [Tolrestat, reference compound], the “% galactitol” value ([2]; 0.5 uM Tolrestat) is reported as 100%, the “% galactitol” value ([2]; 1 uM Tolrestat) is reported as 90% and the “% galactitol” value ([2]; 7 uM Tolrestat) is reported as 53%. For the same compound, the IC50 ([2]; Epithelial cell) was 8 µM, the inhibition at 10 µM ([2]; Epithelial cell) was 95 ± 4% and the “PKC-γ levels in lens epithelial cells” value (PKC-γ; 40% galactose feed 9 days, FIG. 2, FIG. 3A) was “remained near normal”. The “PKC-γ levels in sciatic nerve cells” value (PKC-γ; high galactose feed, FIG. 3B) was “normalized” and the water solubility (water solubility) was “insoluble in water”.
